Reference: US20070269379A1, “Penetration Enhancer Combinations for Transdermal Delivery” (priority 2003, published 2007)

Columns and labels:
hairless rat skin = test: Skin observation and histology after patch application in hairless rats; type: in vivo; details: skin excised after removing the patch, hematoxylin staining
[1] = system: EpiDerm, a cell culture of normal human derived epidermal keratinocytes; test: MTT uptake assay of irritation potential on EpiDerm cultures; type: cell-based; details: 4 hrs exposure, vehicle 1:1 PBS:EtOH
Description: Experiments to assess irritation potential were performed on the binary pairs of library CPEs at the compositions that yielded the maximum ER value in the screening experiments using the methyl thiazol tetrazolium (MTT) uptake assay. Irritation potential was estimated using EpiDermTM (MatTek Co., MA, USA, […].com), a cell culture of normal human derived epidermal keratinocytes. EpiDermTM cultures were stored and handled according to the standard protocol MTT-ET-50 (MatTek Co., MA, USA, […].com). To study the effect of the test formulations on cell viability, cell cultures were exposed to 10 μl of each test formulation for 4 hrs. Each test formulation was analyzed in duplicate. At the end of 4 hrs the assay medium was removed and stored aside at -70° C. for Interleukin-1α assay. The cell cultures were rinsed clear of the test formulations using PBS and incubated with 300 μL of MTT reagent (MatTek Co., MA, USA) for 3 hrs at 37° C. and 5% CO2. At the end of the incubation period the cell cultures were treated with 2 ml of extracting media (provided by MatTek Co) for 2 hrs. 200 μL of this extraction media was then sampled and its optical density (or absorbence) was measured at 570 nm wavelength. The optical absorbance data was then used to calculate the percentage cell viability as recommended in the MTT-ET-50 protocol.

| Compound | histology: state of the stratum corneum (hairless rat skin) | irritation potential (IP) [1] [%] |
| --- | --- | --- |
| CCCCCCCCCCCCOS(=O)(=O)[O-].[Na+] [SLS, Sodium Lauryl Sulfate] | completely detached |  |
| CCCCCCCC/C=C\CCCCCCCC(=O)O [oleic acid] |  | 14.5 |
